One may read the bioavailability as dose-corrected exposure relative to a reference, in per cent. High values mean much systemic uptake, low ones little systemic uptake. The clearance is the rate of elimination divided by the concentration. As a reminder, the solubility is the dissolved amount per volume that the medium holds. Lower therefore signals little dissolved substance. As usually defined, the half-life is the time needed for the level to fall by half in the phase considered. Low readings indicate rapid decline, high ones slow decline. The logD is the decadic logarithm of the distribution of all forms, ionised or not, between an organic phase and buffer at a given pH. A lower logD goes with a more hydrophilic compound. As usually defined, the Cmax is the maximum level reached in the sampled fluid or tissue. Broadly, the AUC is the area under the concentration-time curve, a measure of exposure. Read a high AUC as high exposure.

From ChEMBL document CHEMBL1152282, “SAR profiles of spirocyclic nicotinamide derived selective HDAC1/HDAC2 inhibitors (SHI-1:2)” (Bioorg Med Chem Lett, 2008) come the findings set out here.

The nature of data set [1]: Oral bioavailability in dog at 1.0 mg/kg. It is filed as ADME, organism-based, Canis lupus familiaris. As to conditions: in vivo.
The nature of data set [2]: Plasma concentration in human HCT116 cells xenografted CD1 mouse at 300 mg/kg, po after 24 hrs. It is filed as ADME, organism-based, HCT-116. More on the design: dose 300 mg/kg, route oral.
The nature of data set [3]: Plasma concentration in human HCT116 cells xenografted CD1 mouse at 15 mg/kg, ip after 24 hrs. The class given is ADME, organism-based, HCT-116. More on the design: dose 15 mg/kg, route intraperitoneal. For orientation: Xenograft models place foreign cells or tissue in a host animal.
Data set [4] relates to Canis familiaris. In words: Plasma concentration in CV dog at 10 mg/kg, iv. It is filed as ADME, organism-based, Canis lupus familiaris. Further details: dose 10 mg/kg, route intravenous. As to conditions: in vivo.
Data set [5] can be described thus: Oral bioavailability in rat at 4.0 mg/kg. Conditions: in vivo. It is filed as ADME, organism-based.
Data set [6] can be described thus: Plasma concentration in human HCT116 cells xenografted CD1 mouse at 150 mg/kg, po after 6 hrs. It is filed as ADME, organism-based, HCT-116. More on the design: dose 150 mg/kg, route oral.
Data set [7] is described as follows: Plasma clearance in rat at 2.0 mg/kg, iv. The class given is ADME, organism-based. More on the design: dose 2 mg/kg, route intravenous.
The nature of data set [8]: Plasma concentration in human HCT116 cells xenografted CD1 mouse at 15 mg/kg, ip after 72 hrs. The class given is ADME, organism-based, HCT-116. Further details: dose 15 mg/kg, route intraperitoneal.
The nature of data set [9]: Plasma concentration in human HCT116 cells xenografted CD1 mouse at 15 mg/kg, ip after 6 hrs. It is filed as ADME, organism-based, HCT-116. Further details: dose 15 mg/kg, route intraperitoneal.
A short description of data set [10]: Plasma concentration in human HCT116 cells xenografted CD1 mouse at 15 mg/kg, ip after 48 hrs. The class given is ADME, organism-based, HCT-116. More on the design: dose 15 mg/kg, route intraperitoneal.
Data set [11] relates to Canis familiaris. In words: Plasma concentration in CV dog at 3 mg/kg, iv. It is filed as ADME, organism-based, Canis lupus familiaris. More on the design: dose 3 mg/kg, route intravenous. As to conditions: in vivo.
Data set [12] is described as follows: Plasma clearance in dog at 0.50 mg/kg, iv. It is filed as ADME, organism-based, Canis lupus familiaris. More on the design: dose 0.5 mg/kg, route intravenous. Conditions: 0.5 mg/kg.
A short description of data set [13]: Solubility of the compound. It is filed as physicochemical.
Data set [14] can be described thus: Half life in dog at 0.50 mg/kg, iv. Conditions: in vivo, 0.5 mg/kg. The class given is ADME, organism-based, Canis lupus familiaris. Further details: dose 0.5 mg/kg, route intravenous.
Data set [15] in a line: Distribution coefficient, log D of the compound. The class given is physicochemical. Conditions: octanol/water.
Data set [16] can be described thus: Volume of distribution at steady state in rat at 2.0 mg/kg, iv. It is filed as ADME, organism-based. More on the design: dose 2 mg/kg, route intravenous. Conditions: in vivo, read-out: Vdss.
The nature of data set [17]: Volume of distribution at steady state in dog at 0.50 mg/kg, iv. It is filed as ADME, organism-based, Canis lupus familiaris. Further details: dose 0.5 mg/kg, route intravenous. As to conditions: in vivo, 0.5 mg/kg, read-out: Vdss.
Data set [18] is described as follows: Plasma concentration in human HCT116 cells xenografted CD1 mouse at 150 mg/kg, po after 24 hrs. More on the design: dose 150 mg/kg, route oral. The class given is ADME, organism-based, HCT-116.
Data set [19] in a line: Plasma concentration in human HCT116 cells xenografted CD1 mouse at 300 mg/kg, po after 6 hrs. The class given is ADME, organism-based, HCT-116. Further details: dose 300 mg/kg, route oral.
A short description of data set [20]: Half life in rat at 2.0 mg/kg, iv. The class given is ADME, organism-based. More on the design: dose 2 mg/kg, route intravenous. Conditions: in vivo.
Data set [21] is described as follows: Cmax in mouse at 150 mg/kg, po. It is filed as ADME, organism-based. Conditions: in vivo. Further details: dose 150 mg/kg, route oral.
Data set [22] can be described thus: AUC in mouse at 150 mg/kg, po. Conditions: plasma. Further details: dose 150 mg/kg, route oral. It is filed as ADME, organism-based.
The nature of data set [23]: Plasma clearance in dog at 0.90 mg/kg, iv. It is filed as ADME, organism-based, Canis lupus familiaris. More on the design: dose 0.9 mg/kg, route intravenous. As to conditions: 0.9 mg/kg.
Data set [24] can be described thus: Half life in dog at 0.90 mg/kg, iv. The class given is ADME, organism-based, Canis lupus familiaris. More on the design: dose 0.9 mg/kg, route intravenous. As to conditions: in vivo, 0.9 mg/kg.

≈ marks a conversion by molar mass, not a printed value.

For the compound `Nc1ccc(-c2cccs2)cc1NC(=O)c1ccc(N2CCC3(CCNC3)CC2)nc1`, the bioavailability in data set [1] was 100%; in [5], 23%. The concentration at 24 h in [2] amounted to 0.78 µM; in [3], 0.32 µM; in [18], 0.22 µM. Also, the concentration turned out to be 30 µM in the data set with Canis familiaris [4] and 6 µM with Canis familiaris [11]. Moreover, the concentration at 6 h in data set [6] stood at 11 µM; in data set [9] it was 3.4 µM; in data set [19], 21 µM. Further, the clearance in data set [7] came to 31 mL/min/kg; in data set [12] it was 5.9 mL/min/kg. Besides, the concentration at 72 h in [8] amounted to 0.03 µM. The compound further yielded a concentration at 48 h in [10] of 0.05 µM. The compound further yielded a solubility in data set [13] of 186 µM (≈ 80.6 µg/mL). For the same compound, the half-life in data set [14] was 6.7 h; in data set [20] it was 6.2 h. In data set [15], this compound came in with a logD of 1.45. The Vd in [16] is 8.6 L/kg; in [17] it was 3.3 L/kg.

`Nc1ccc(-c2cccs2)cc1NC(=O)c1ccc(N2CCC3(CC2)COC(=O)N3)nc1` returned a peak concentration (Cmax) in data set [21] of 6 µM. Also, the bioavailability is 18% in [1] and 13% in data set [5]. The compound also had an AUC in data set [22] of 14 µM·h. The clearance in [7] was found to be 7.4 mL/min/kg; in data set [12], 9.8 mL/min/kg. For the same compound, the results for the half-life in data set [14] and in data set [20] were 6.8 h and 2.6 h, respectively. In addition, the figures for the Vd in [16] and in data set [17] were 0.47 L/kg and 2.3 L/kg, respectively.

In data set [23], `C[C@H]1CN(c2ccc(C(=O)Nc3ccccc3N)cn2)CCN1C(=O)OCc1ccccc1` had a clearance of 7.4 mL/min/kg. This compound also yielded a bioavailability in data set [5] of 37%. Further, the half-life in data set [24] was 5.6 h; in [20] it was 0.93 h.

In the case of `Nc1ccc(-c2cccs2)cc1NC(=O)c1ccc(N2CCC3(CCNC3=O)CC2)nc1`, the concentration in data set [21] peaked (Cmax) at 34 µM. In addition, in [22], the AUC was determined as 88 µM·h.

As for `Nc1ccc(-c2cccs2)cc1NC(=O)c1ccc(N2CCC3(CC2)CNC(=O)N3)nc1`, in [21], the Cmax came out at 2 µM. The compound further came in with an AUC in data set [22] of 10 µM·h.
